Where “and” joins values, the source holds several entries; their conditions need not be identical. Identical values can stand only once. Like-named read-outs stand apart in the source and are kept apart here.
Assays:
[1] = Tissue distribution in Sprague Dawley rats; assay type: in vivo
Procedure: Concentrations of ET-26-HCl and ET-26-acid in biological samples were determined by liquid chromatography–tandem mass spectrometry (LC–MS/MS) after deproteinization with methanol. The bioanalytical method for simultaneous quantification of ET-26-HCl and ET-26-acid in the different matrix was fully validated according to FDA guidelines (electronic supplementary material, figure S1 and tables S1 and S2) in our previous study. Briefly, a 100 µl sample (plasma, tissue homogenate, bile, urine and faeces suspension) were spiked with 20 µl of IS solution and vortexed for 30 s. The mixture was then processed for protein precipitation with 300 µl methanol, followed by centrifugation at 12 000 r.p.m. for 5 min. Supernatant was collected and analysed by LC–MS/MS system.
Sprague Dawley (SD) rats (200–240 g) were provided by the Animal Facility at Sichuan University (Chengdu, China). All rats received a single 4.2 mg kg^−1 dose of ET-26-HCl intravenously. Rats were sacrificed and tissues, including heart, spleen, lung, intestine, colon, kidney, brain, fat, stomach, liver, muscle, testis and ovary were collected at 0, 1, 3, 6 and 10 h post-dosing (six rats/time-point). Tissue samples were rinsed thrice in ice cold saline, and blotted dry with filter papers. Weighed amount of tissues were homogenized in normal saline (thrice the tissue weight, w/v) and homogenates were stored at −80°C until analysis.

[2] = Metabolic stability in dog liver microsomes; assay type: in vitro ADME; conditions: for half-life: pH 7.4
Procedure: (§1) Samples were analysed by LC–MS/MS as mentioned above.2.1 CLint, in vitro=0.693/t1/2/Cprotein, 2.2 CLint, in vivo=CLint, in vitro×Houston×LW/1000 2.3 andCLhep in vivo=HBF × fu ×CLint, in vivo/HBF + fu ×CLint, in vivo. Where Cprotein is microsomal protein concentration (mg ml^−1); Houston is Houston factor (45 mg of microsomal protein g^−1 liver); LW is liver weight (g) (per species); HBF is hepatic blood flow (ml min^−1) (per species); fu (two places) and later is unbound fraction (fu = 1 − %protein binding).

[3] = Plasma protein binding, equilibrium dialysis, rat plasma; assay type: in vitro ADME
Procedure: The PPB of ET-26-HCl in mouse, rat, beagle dog, monkey and human plasma was determined according to the equilibrium dialysis method. In brief, 1 ml of control plasma samples in dialysis bag was incubated in 10 ml of PBS containing ET-26-HCl at a final concentration of 2.21 × 10^2, 1.77 × 10^3 and 3.54 × 10^3 […] at 4°C with an equilibrium time of 9 h to reach the mass balance binding condition. A 100 µl aliquots of the PBS buffer and the plasma in the dialysis bag were transferred to 2 ml EP tubes and diluted to 995 µl with PBS and analysed on the LC–MS/MS system. The PPB (fppb) was calculated as follows: fppb=Din−Dout/Din×100% , where Din is the plasma drug concentration in the dialysis bag and Dout is the dialysate drug concentration.

[4] = Identification of major metabolites in liver microsomes (UPLC-Q-TOF-MS); assay type: in vitro ADME, mouse, rat, beagle dog, monkey and human; conditions: 10 µM ET-26-HCl, 1 mg ml^−1 liver microsomes, NADPH, 1 h
Procedure: The major metabolites of ET-26-HCl in liver microsomes from mouse, rat, beagle dog, monkey and human were determined by the UPLC-Q-TOF-MS system.
Reaction mixture containing 10 µM ET-26-HCl, […] MgCl2 and 1 mg ml^−1 liver microsomes in Tris-HCl phosphate buffer (pH 7.4) was pre-incubated for 6 min at 37°C, followed by the addition of NADPH. After incubation for 1 h, methanol was added to stop the reaction. Samples were centrifuged at 11 000 r.p.m. for 5 min; supernatants were collected and air dried at 40°C. Residues were dissolved in 100 µl acetonitrile/water (1:1, v/v) and analysed by the UPLC-Q-TOF-MS.
The UPLC-Q-OF-MS system was equipped with a Waters Synapt G2-Si quadrupole time-of-flight mass spectrometer (Q-TOF-MS), an ESI source and an ACQUITY UPLC H-CLASS liquid chromatography system. The chromatographic separations were achieved on an ACQUITY UPLC BEH C18 column (2.1 × 100 mm, i.d. 1.7 µm, Waters, USA) kept at 45°C and a flow rate of 0.4 ml min^−1. The mobile phase consisted of 5 mM ammonium acetate with 0.1% formic acid (A) and acetonitrile with 0.1% formic acid (B). The optimized gradient elution programme followed was 0 min to 2.1 min, A/B (19/1, v/v); 2.1 min to 7.3 min, A/B (1/4, v/v); 7.3 min to 8.0 min, A/B (1/9, v/v); and 8.0 min to 10 min, A/B (19/1, v/v). The injection volume was 5 µl. The mass experiment was operated in positive ion modes under the following parameters: turbo spray temperature, 120°C; ion spray voltage, 3.0 kV. Nitrogen was used as the nebulizer and the auxiliary gas; meanwhile, the nebulizer gas was set to 650 l h^−1 and kept at 350°C. The collision energy was set at 5–10 V and the collision energy spread was 4–6 V. TOF-MS was scanned with the mass range of m/z 50–600 with 200 ms accumulation time. A 400 ng ml^−1 leu-enkephalin (m/z 556.2771) was selected as an external standard for mass–charge ratio correction at a flow rate of 5 µl min^−1.

[5] = Metabolic stability in monkey liver microsomes; assay type: in vitro ADME
Procedure: as §1

[6] = dog liver microsomes, Cprotein 0.33 mg ml^−1

Structure (SMILES): COCCOC(=O)c1cncn1[C@H](C)c1ccccc1.Cl [ET-26-HCl, (R)-2-methoxyethyl1-(1-phenylethyl)-1H-imidazole-5-carboxylate hydrochloride]
- time for complete excretion from kidney ([1]; i.v. 4.2 mg kg^−1): ≤ 24 h
- time for elimination from the brain ([1]; i.v. 4.2 mg kg^−1): ≤ 3 h
- concentration in the brain ([1]; i.v. 4.2 mg kg^−1, at the onset): 2570 ng/mL
- time for clearance from tissues ([1]; i.v. 4.2 mg kg^−1 ET-26-HCl): around 3 h
- tissues with the highest concentration ([1]; i.v. 4.2 mg kg^−1 ET-26-HCl): Adipose tissue and liver
- half-life ([2]; beagle, dog liver microsomes, Cprotein 0.33 mg ml^−1): < 5 min
- CLint, in vitro ([2]; dog liver microsomes): 466 ml min g^−1 protein
- metabolic stability (in words) ([2]; dog liver microsomes): not metabolically stable
- CLint, in vitro [2, 6]: 466 ± 12.3 ml min^−1 g^−1 protein
- extrapolated hepatic clearance normalized to body weight ([2]; dog, assumed body weight 10 kg (printed order)): 4.58 L·h/kg
- extrapolated CLhep in vivo ([2]; dog, from liver microsomes): 296 mL/min and 296 ± 0.35 mL/min
- extrapolated CLint, in vivo ([2]; dog, from liver microsomes): 6712 ± 117 mL/min
- half-life [2, 6]: 4.5 ± 0.1 min
- fraction unbound at 9 h, 654 ng ml^−1 ([3]; measured concentration 654 ng ml^−1): 0.181
- fraction unbound at 9 h ([3]; measured concentration 2.62 × 10^3 ng ml^−1, read-out: protein binding (converted)): 0.15
- fraction unbound at 9 h ([3]; measured concentration 5.23 × 10^3 ng ml^−1, read-out: protein binding (converted)): 0.178
- fraction unbound at 9 h ([3]; overall over the three concentrations, read-out: plasma protein binding rate (converted)): 0.17
- source (liver microsomes) in which detected [4]: human and dog
- source (liver microsomes) in which detected ([4]; listed as M0): human, dog
- CLint, in vitro ([5]; monkey liver microsomes): 2216 ml min g^−1 protein
- metabolic stability (in words) ([5]; monkey liver microsomes): not metabolically stable
- time to complete disappearance of ET-26-HCl ([5]; monkey liver microsomes): ≤ 15 min
- CLint, in vitro ([5]; monkey liver microsomes, Cprotein 0.33 mg ml^−1): 2216 ± 43.0 ml min^−1 g^−1 protein
- extrapolated CLhep in vivo ([5]; monkey, from liver microsomes): 168 ± 0.05 mL/min

— article PMC7062083, “Metabolite identification, tissue distribution, excretion and preclinical pharmacokinetic studies of ET-26-HCl, a new analogue of etomidate” (Royal Society Open Science, 2020)
